Here are results for 15 compounds from patent publication US4166852A, “Piperazino-pyrimidines and their use as spasmolytic agents” (priority 1974, dated 1979).

SMILES strings stand for the structures. ≈ marks a conversion by molar mass, not a printed value. Where a name gives a salt, the structure may show the parent alone. Read-outs that look alike come from different tables or passages of the source.

In data set [1] the test system is serotonine plantar oedema. The data set is described as follows: anti-serotonine activity, serotonine plantar oedema. Format: in vivo, CD (Charles RIVER) rats. The note with it: po; rat, orally; read-out: Serotonine plantar oedema AD 50. The text has this:
(§1) The anti-serotonine activities of the compounds according to the invention have been shown by oral administration to the CD (Charles RIVER) rats using the technique of the serotonine plantar oedema (W. Theobald and R. Domenjoz--Arzneimittel Forsch, 8, 18, 1958 and with the CD 1 (Charles RIVER) mice using the technique known as "head twitch" according to S. J. Corne, R. W. Pickering and B. T. Warner, Brit. J. Pharmacol., 20, 106, (1963). The anti-serotonine activity has also been determined on the one hand on the tricoloured guinea-pig, given intravenously, according to a method derived from H. Konzet and R. Rossler, Arch. exp. Pathol, Pharmakol., 195, 71, (1940) and on the other hand in vitro with respect to the serotonine spasm of the isolated uterus of the rat according to the technique of A. Fanchamps, W. Doepfener, H. Weidman and A. Cerletti, Schw. Med. Worsch, 90, 1940, (1960).

Data set [2] concerns isolated duodenum of the rabbit (barium chloride). The experiment in a line: spasmolytic effect on isolated duodenum, barium chloride spasm. Type of data set: cell-based. As to conditions: Oryctolagus cuniculus, read-out: Spasmolytic effects EC 50 with respect to barium chloride. The text has this:
(§2) Ges. Physiol., 102, 123, (1904) with respect to the spasms of the isolated duodenum of rabbits caused either by acetylchlorine for the spasmolytic nemotropes or by barium chloride for the spasmolytic musculotropes.

The subject of data set [3] is isolated duodenum of the rabbit (acetylcholine). The experiment in a line: spasmolytic effect on isolated duodenum, acetylcholine spasm. Format: cell-based. As to conditions: Oryctolagus cuniculus, read-out: Spasmolytic effects EC 50 with respect to acetylcholine.
Text: as §2

For another data set, the system named is dogs. The data set is described as follows: anti-emetic activity, apomorphine vomiting test on dogs. Type of data set: in vivo. The note with it: Canis lupus familiaris, po, read-out: Anti-emetic activity on dogs ED 50. The text has this:
The anti-emetic properties of the compounds according to the invention have been shown by oral administration of apomorphine to dogs in the vomiting test according to G. Chen and C. J. Ensor, Pharmacol. exp. Therap., 98, 24 (1950).

Data set [4] can be described thus: acute toxicity, LD 50, CD 1 mice. Type of data set: in vivo. The note with it: mouse, in vivo. The text has this:
The acute toxicities of the compounds according to the invention have been determined on CD 1 (Charles RIVER) mice by intravenous and oral methods. The LD 50 of each compound has been calculated by the cumulative method of J. J. Reed and H. Muench, (Amer. J. Hyg., 1938, 27, 493).

The next data set relates to mice. The experiment in a line: analgesic activity, painful abdominal torsions test with phenylbenzoquinone. As to conditions: Mus musculus, po; mice, orally; read-out: Phenylbenzoquinone test on mice AD 50. Format: in vivo, CD 1 (Charles RIVER) mice. From the text: The analgesic properties of the products according to the invention have been shown with CD 1 (Charles RIVER) mice in the painful abdominal torsions test with phenylbenzoquinone according to the technique of E. Siegmund, R. Cadmus and Go.Lu--Proc. Soc. Exp. Biol. Med., 95, 729, (1957).

A further data set relates to head twitch. The data set is described as follows: anti-serotonine activity, head twitch. Format: in vivo, CD 1 (Charles RIVER) mice. As to conditions: Mus musculus, po; mice, orally; read-out: "Head-twitch" AD 50.
Text: as §1

The subject of a further data set is serotonine bronchospasms. The data set is described as follows: anti-serotonine activity, serotonine bronchospasms. Type of data set: in vivo, tricoloured guinea-pig. As to conditions: Cavia porcellus, iv; guinea pig, intravenously; read-out: Serotonine bronchospasms ED 50.
Text: as §1

The subject of a further data set is mouse. The experiment in a line: spontaneous motility test (hypomotility), mouse. Format: in vivo, mice. The note with it: po, 1 h, orally, 60 minutes before measuring, 50% reduction of mean motility, first 5 minutes, read-out: Hypomotility ED 50. The text has this:
The neuroloptic effects of the compounds according to the invention have been shown with respect to the CD rat (Charles RIVER) taken orally in the catalepsy test according to S. COURVOISIER, R. DUCROT, and L. JULOU, in Psychotropic Drugs, S. GARATTINI and V. GHETTI, Edit.--ELSEVIER Publ. Co., AMSTERDAM, LONDON, NEW YORK, PRINCETON, 1957 P. 373 and also in the traction test of CD1 (Charles RIVER) mice taken orally S. COURVOISIER, Quart. Rev. Psychiat. Neurol. 17, 25 (1956), on the one hand and also in the spontaneous motility test.
This latter technique comprises keeping an account of the displacements of the mice by means of a floor of metal strips which enables the spontaneous activity of the animals to be recorded during the first 5 minutes subsequent to their being introduced into the measuring chamber. The products are dispensed 60 minutes before measuring is effected and 10 mice are used per dose. The results are expressed in ED 50 which represents the dose of substance capable of reducing the mean motility of the treated animals by 50% relative to that of the sample group which has only received the dispensing carrier.

The next data set is described as follows: solubility. Format: physicochemical.
Setting [5] is: intravenous, read-out: Acute toxicity for mice LD 50, intravenous.
Where [6] appears, read: oral, read-out: Acute toxicity for mice LD 50, orally.

Take `C=CCOc1nc(NC)nc(N2CCN(C)CC2)c1SC` [Example 19, 2-methylamino-4-N-methylpiperazino-5-methylthio-6-allyloxy-pyrimidine hydrochloride]: the ED50 in data set [1] was above 100 mg/kg; in the data set on dogs (dogs, orally, apomorphine), 1.5 mg/kg; in the data set on mice, 100 mg/kg. In addition, the EC50 is 3.1 µg/mL in [2] and above 5 µg/mL in data set [3]. Further, the LD50 is 56 mg/kg in data set [4] (setting [5]) and around 400 mg/kg in [4] (setting [6]).
As to `CSc1c(Cl)nc(N2CCN(C)CC2)nc1N1CCN(C)CC1` [Example 9, Bis-2,4-(N-methylpiperazino)-6-chloro-5-methylthio-pyrimidine hydrochloride], the figures for the EC50 in data set [2] and in [3] were 3.6 µg/mL and above 10 µg/mL, respectively. In addition, the ED50 was determined as 300 mg/kg with head twitch and 150 mg/kg in the data set with mice. The LD50 in [4] (setting [5]) is 83 mg/kg; in data set [4] (setting [6]) it was around 675 mg/kg.
As for `CSc1c(Cl)nc(NC(C)(C)C)nc1N1CCN(C)CC1` [Example 3, 2-t-butylamino-4-N-methylpiperazino-5-methylthio-6-chloro-pyrimidine], the EC50 came to 0.5 µg/mL (≈ 1.52 µM) in data set [2] and 2.5 µg/mL (≈ 7.58 µM) in data set [3]. Also, the ED50 in the data set with head twitch turned out to be 300 mg/kg. Also, the LD50 in data set [4] (setting [5]) was 67 mg/kg; in [4] (setting [6]) it was around 600 mg/kg.
`CCCOc1nc(NC)nc(N2CCN(C)CC2)c1SC` [Example 18, 2-Methylamino-4-N-methylpiperazino-5-methylthio-6-propoxy-pyrimidine hydrochloride]: the EC50 in [2] was 2.1 µg/mL; in data set [3], above 5 µg/mL. The ED50 in the data set with dogs (dogs, orally, apomorphine) is 3.9 mg/kg. The LD50 in [4] (setting [5]) is 63 mg/kg; in data set [4] (setting [6]) it was around 525 mg/kg.
Taken in the same sequence, the figures for `CNc1nc(Cl)c(SC)c(N2CCN(CCO)CC2)n1` [Example 8, 2-Methylamino-4-N-(β-hydroxyethyl)-piperazino-6-chloro-5-methylthio-pyrimidine] were 1.3 µg/mL (≈ 4.09 µM), 5 µg/mL (≈ 15.7 µM), 0.25 mg/kg, 124 mg/kg and around 525 mg/kg.
On to `CCN(CC)c1nc(Cl)c(SC)c(N2CCN(C)CC2)n1` [Example 15, 2-N-diethylamino-4-N-methylpiperazino-5-methylthio-6-chloro-pyrimidine dihydrobromide], for which the EC50 in data set [2] was 4 µg/mL; in [3] it was 5 µg/mL. The LD50 in data set [4] (setting [5]) was 123 mg/kg; in data set [4] (setting [6]) it was around 600 mg/kg. Also, in the data set on mice, the ED50 came to 300 mg/kg.
Turning to `CNc1nc(OC)c(SC)c(N2CCN(C)CC2)n1` [Example 17, 2-Methylamino-4-N-methylpiperazino-5-methyl-thio-6-methoxy-pyrimidine hydrochloride], the ED50 was determined as 100 mg/kg in [1], 3 mg/kg in the data set on serotonine bronchospasms and 1.4 mg/kg with dogs. In addition, the LD50 in data set [4] (setting [5]) is 58 mg/kg; in data set [4] (setting [6]) it was around 400 mg/kg.
As to `CSc1c(Cl)nc(N(C)C(=O)c2ccccc2)nc1N1CCN(C)CC1` [Example 13, 2-(N-methyl-N-benzoyl)amino-4-N-methyl-piperazino-6-chloro-5-methylthio-pyrimidine hydrochloride], the ED50 is above 300 mg/kg in [1]; 300 mg/kg in the data set with head twitch; 1.9 mg/kg in the data set on dogs (dogs, orally, apomorphine). Besides, the EC50 in data set [2] turned out to be 2.6 µg/mL; in [3], 4 µg/mL. Besides, the LD50 was 91 mg/kg in data set [4] (setting [5]) and around 600 mg/kg in data set [4] (setting [6]).
Regarding `CSc1c(Cl)nc(N(C)c2ccccc2)nc1N1CCN(C)CC1` [Example 12, 2-(N-methyl-N-phenyl)amino-4-N-methylpiperazino-5-methylthio-6-chloro-pyrimidine hydrochloride], the EC50 stood at 2.2 µg/mL in [2] and 3 µg/mL in data set [3]. The LD50 in data set [4] (setting [5]) was 113 mg/kg; in data set [4] (setting [6]), around 525 mg/kg. Further, the ED50 in the data set with mice is 100 mg/kg.
As to `CSc1c(Cl)nc(N2CCCCC2)nc1N1CCN(C)CC1` [Example 11, 2-Piperidino-4-methylpiperazino-5-methylthio-6-chloro-pyrimidine hydrochloride], the EC50 in data set [2] came out at 2.2 µg/mL; in data set [3], 2.5 µg/mL. Besides, the LD50 in [4] (setting [5]) is 115 mg/kg; in [4] (setting [6]), around 525 mg/kg.
Regarding `CSc1c(Cl)nc(NCCO)nc1N1CCN(C)CC1` [Example 22, 2-N-(β-hydroxyethyl)amino-4-N-methylpiperazino-6-chloro-5-methylthiopyrimidine], the ED50 was 100 mg/kg in the data set on mouse; 0.16 mg/kg with serotonine bronchospasms; above 100 mg/kg in the data set on head twitch; 0.85 mg/kg in the data set with dogs (dogs, orally, apomorphine); above 100 mg/kg in the data set on mice. Besides, the EC50 in data set [2] and in data set [3] was above 10 µg/mL in each case. In addition, the “solubility in dilute hydrochloric acid” value in “solubility” is “soluble”. In addition, the “solubility in ethanol (alcohol)” value in “solubility” is reported as “soluble”. In the data set “solubility”, the solubility in water entry is “insoluble”. The LD50 in data set [4] (setting [5]) is 89 mg/kg; in data set [4] (setting [6]), around 600 mg/kg.
With `COc1ccc(Nc2nc(Cl)c(SC)c(N3CCN(C)CC3)n2)cc1` [Example 32, 4'-methoxy-2-phenylamino-4-N-methylpiperazino-6-chloro-5-methylthiopyrimidine], the ED50 was 60 mg/kg in the data set on mouse, 0.9 mg/kg in the data set with serotonine bronchospasms, 27 mg/kg in the data set with head twitch and above 35 mg/kg in the data set with mice. Further, the EC50 in data set [3] amounted to 5.5 µg/mL (≈ 14.5 µM). In addition, in the data set “solubility”, the “solubility in dilute hydrochloric acid” value is listed as “soluble”. Besides, the solubility in water result in “solubility” is on record as “insoluble”. Moreover, the LD50 in [4] (setting [5]) is 83 mg/kg; in data set [4] (setting [6]), around 495 mg/kg.
`CSc1c(Cl)nc(NC(C)C)nc1N1CCN(C)CC1` [Example 2, 2-Isopropylamino-4-N-methyl-piperazino-6-chloro-5-methylthio-pyrimidine]: the EC50 was 1.2 µg/mL (≈ 3.8 µM) in data set [2] and 5 µg/mL (≈ 15.8 µM) in data set [3]. Besides, the ED50 with dogs (dogs, orally, apomorphine) worked out at 0.12 mg/kg; in the data set on mice it was 65 mg/kg. Besides, the LD50 in data set [4] (setting [5]) was 79 mg/kg; in data set [4] (setting [6]) it was around 525 mg/kg.
For the compound `CNc1nc(Cl)c(SC)c(N2CCN(c3ccccc3)CC2)n1` [Example 7, 4-N-phenylpiperazino-2-methylamino-6-chloro-5-methylthio-pyrimidine], the ED50 with head twitch came out at 400 mg/kg.
As for `CSc1c(Cl)nc(N2CCOCC2)nc1N1CCN(C)CC1` [Example 28, 2-Morpholino-4-N-methylpiperazino-6-chloro-5-methylthiopyrimidine], the ED50 in data set [1] is above 100 mg/kg; in the data set with mouse, 100 mg/kg; in the data set on serotonine bronchospasms, above 0.1 mg/kg; in the data set with head twitch, 70 mg/kg; in the data set with dogs (dogs, orally, apomorphine), above 5 mg/kg; in the data set with mice, above 100 mg/kg. Also, the EC50 in [2] was 1.7 µg/mL (≈ 4.94 µM); in [3], 4.5 µg/mL (≈ 13.1 µM). In “solubility”, the “solubility in dilute hydrochloric acid” value was “soluble”. The “solubility in ethanol (alcohol)” value in the data set “solubility” is “soluble”. In “solubility”, the solubility in water result was “insoluble”. In addition, the LD50 in data set [4] (setting [5]) was 110 mg/kg; in [4] (setting [6]), around 400 mg/kg.
